In ChEMBL document CHEMBL1157496, “Design, synthesis, and evaluation of a novel 4-aminomethyl-4-fluoropiperidine as a T-type Ca2+ channel antagonist” (J Med Chem, 2008):

Legend:
Rattus norvegicus [1] = species: Rattus norvegicus; assay: Decrease in seizure time in Wistar albino Glaxo rat model of absence epilepsy after 4 hrs; type: functional
[2] = biological target: Voltage-dependent T-type calcium channel subunit alpha-1I (Homo sapiens) (UniProt Q9P0X4); assay: Antagonist activity at T type calcium channel Cav3.3 alpha1i at -20 mV by FLIPR assay; type: functional
[3] = biological target: Voltage-dependent T-type calcium channel subunit alpha-1I (Homo sapiens) (UniProt Q9P0X4); assay: Antagonist activity at T type calcium channel Cav3.3 alpha1i at -60 mV by FLIPR assay; type: functional
[4] = Cmax in Wistar albino Glaxo rat model of absence epilepsy at 3 mg/kg; type: ADME, organism-based; parameters: dose 3 mg/kg; conditions: in vivo
[5] = Cmax in rat at 10 mg/kg, po; type: ADME, organism-based; parameters: dose 10 mg/kg, route oral; conditions: in vivo
[6] = Protein binding in dog plasma; type: ADME, cell-free, Canis lupus familiaris; conditions: read-out: PPB
Canis familiaris [7] = assay: Toxicity in dog assessed as increase in heart rate at 20 mg/kg, po after 3 hrs; type: organism-based, Canis lupus familiaris; parameters: dose 20 mg/kg, route oral; conditions: in vivo
[8] = Tmax in monkey at 2 mg/kg, po; type: ADME, organism-based, Macaca mulatta; parameters: dose 2 mg/kg, route oral; conditions: rhesus monkey, in vivo
[9] = Clearance in rat at 1 mg/kg, iv; type: ADME, organism-based; parameters: dose 1 mg/kg, route intravenous; conditions: in vivo
[10] = Drug level in dog plasma at 1.29 mg/kg, iv measured at end of 60 mins infusion; type: ADME, organism-based, Canis lupus familiaris; parameters: dose 1.29 mg/kg, route intravenous; conditions: read-out: Drug uptake
Canis familiaris [11] = assay: Toxicity in dog assessed as effect on urine flow at 20 mg/kg, po after 3 hrs; type: organism-based, Canis lupus familiaris; parameters: dose 20 mg/kg, route oral; conditions: in vivo
Canis familiaris [12] = assay: Toxicity in dog assessed as effect on plasma electrolytes at 20 mg/kg, po after 3 hrs; type: organism-based, Canis lupus familiaris; parameters: dose 20 mg/kg, route oral; conditions: in vivo
[13] = Protein binding in monkey plasma; type: ADME, cell-free, Macaca mulatta; conditions: rhesus monkey, read-out: PPB (converted)
Canis familiaris [14] = assay: Toxicity in dog assessed as effect on blood pressure at 20 mg/kg, po after 3 hrs; type: organism-based, Canis lupus familiaris; parameters: dose 20 mg/kg, route oral; conditions: in vivo
[15] = Protein binding in rat plasma; type: ADME, cell-free; conditions: read-out: PPB (converted)
[16] = Oral bioavailability in rat at 10 mg/kg; type: ADME, organism-based; conditions: in vivo
[17] = Half life in dog at 0.5 mg/kg, iv; type: ADME, organism-based, Canis lupus familiaris; parameters: dose 0.5 mg/kg, route intravenous; conditions: in vivo
[18] = Half life in monkey at 0.5 mg/kg, iv; type: ADME, organism-based, Macaca mulatta; parameters: dose 0.5 mg/kg, route intravenous; conditions: rhesus monkey, in vivo
[19] = Antagonist activity at T type calcium channel at -100 mV by voltage-clamp electrophysiology assay; type: functional
[20] = AUC (0 to 4 hrs) in Wistar albino Glaxo rat model of absence epilepsy at 1 mg/kg; type: ADME, organism-based; parameters: time < 4 hr, dose 1 mg/kg; conditions: in vivo
[21] = Ratio of drug level in cerebrospinal fluid to plasma in rat after 9 hrs; type: ADME, CSF/Plasma
[22] = Inhibition of sodium channel site 2 by binding assay
[23] = AUC (0 to 4 hrs) in Wistar albino Glaxo rat model of absence epilepsy at 10 mg/kg; type: ADME, organism-based; parameters: time < 4 hr, dose 10 mg/kg; conditions: in vivo
[24] = Cmax in Wistar albino Glaxo rat model of absence epilepsy at 1 mg/kg; type: ADME, organism-based; parameters: dose 1 mg/kg; conditions: in vivo
[25] = Antagonist activity at sigma receptor in guinea pig vas deferens at 30 uM; type: functional, Cavia porcellus; parameters: scale not given: the % may be the effect or the level left
[26] = Volume of distribution at steady state in monkey at 0.5 mg/kg, iv; type: ADME, organism-based, Macaca mulatta; parameters: dose 0.5 mg/kg, route intravenous; conditions: rhesus monkey, in vivo, read-out: Vdss
[27] = Antagonist activity at T type calcium channel at -80 mV by voltage-clamp electrophysiology assay; type: functional
[28] = biological target: Sodium channel protein type 5 subunit alpha (Homo sapiens, UniProt Q14524); assay: Inhibition of sodium channel Nav1.5 by voltage-clamp method
[29] = AUC (0 to 24 hrs) in dog at 1 mg/kg, po; type: ADME, organism-based, Canis lupus familiaris; parameters: time < 24 hr, dose 1 mg/kg, route oral; conditions: plasma
[30] = Clearance in dog at 0.5 mg/kg, iv; type: ADME, organism-based, Canis lupus familiaris; parameters: dose 0.5 mg/kg, route intravenous; conditions: in vivo
Canis familiaris [31] = assay: Toxicity in dog assessed as effect on ECG intervals at 20 mg/kg, po after 3 hrs; type: organism-based, Canis lupus familiaris; parameters: dose 20 mg/kg, route oral; conditions: in vivo
Rattus norvegicus [32] = species: Rattus norvegicus; assay: Decrease in tremor activity in harmaline-induced rat model; type: functional, organism-based
[33] = Oral bioavailability in dog at 1 mg/kg; type: ADME, organism-based, Canis lupus familiaris; conditions: in vivo
[34] = Volume of distribution at steady state in dog at 0.5 mg/kg, iv; type: ADME, organism-based, Canis lupus familiaris; parameters: dose 0.5 mg/kg, route intravenous; conditions: in vivo, read-out: Vdss
[35] = Half life in rat at 1 mg/kg, iv; type: ADME, organism-based; parameters: dose 1 mg/kg, route intravenous; conditions: in vivo
[36] = AUC (0 to 24 hrs) in rat at 10 mg/kg, po; type: ADME, organism-based; parameters: time < 24 hr, dose 10 mg/kg, route oral; conditions: plasma
[37] = Cmax in Wistar albino Glaxo rat model of absence epilepsy at 10 mg/kg; type: ADME, organism-based; parameters: dose 10 mg/kg; conditions: in vivo
[38] = biological target: Voltage-dependent T-type calcium channel subunit alpha-1H (Homo sapiens) (UniProt O95180); assay: Antagonist activity at T type calcium channel Cav3.2 alpha-1H at -100 mV by voltage-clamp electrophysiology assay; type: functional
Canis familiaris [39] = assay: Toxicity in dog assessed as effect on urinary excretion of sodium and potassium at 20 mg/kg, po after 3 hrs; type: organism-based, Canis lupus familiaris, Urine; parameters: dose 20 mg/kg, route oral; conditions: in vivo
[40] = Oral bioavailability in monkey at 2 mg/kg; type: ADME, organism-based, Macaca mulatta; conditions: rhesus monkey, in vivo
[41] = Volume of distribution at steady state in rat at 1 mg/kg, iv; type: ADME, organism-based; parameters: dose 1 mg/kg, route intravenous; conditions: in vivo, read-out: Vdss
[42] = Binding affinity to sigma receptor
[43] = Cmax in monkey at 2 mg/kg, po; type: ADME, organism-based, Macaca mulatta; parameters: dose 2 mg/kg, route oral; conditions: rhesus monkey, in vivo
[44] = Cmax in dog at 1 mg/kg, po; type: ADME, organism-based, Canis lupus familiaris; parameters: dose 1 mg/kg, route oral; conditions: in vivo
[45] = Ratio of drug level in brain to plasma in rat after 9 hrs; type: ADME, cell-free
[46] = Tmax in rat at 10 mg/kg, po; type: ADME, organism-based; parameters: dose 10 mg/kg, route oral; conditions: in vivo
[47] = AUC (0 to 4 hrs) in Wistar albino Glaxo rat model of absence epilepsy at 3 mg/kg; type: ADME, organism-based; parameters: time < 4 hr, dose 3 mg/kg; conditions: in vivo
[48] = Tmax in dog at 1 mg/kg, po; type: ADME, organism-based, Canis lupus familiaris; parameters: dose 1 mg/kg, route oral; conditions: in vivo
Canis familiaris [49] = assay: Toxicity in dog assessed as effect on renal plasma flow at 20 mg/kg, po after 3 hrs; type: organism-based, Canis lupus familiaris; parameters: dose 20 mg/kg, route oral; conditions: in vivo
[50] = Drug level in dog plasma at 4.30 mg/kg, iv measured at end of 60 mins infusion; type: ADME, organism-based, Canis lupus familiaris; parameters: dose 4.3 mg/kg, route intravenous; conditions: 4.3 mg/kg, read-out: Drug uptake
[51] = biological target: Voltage-dependent N-type calcium channel subunit alpha-1B (Homo sapiens) (UniProt Q00975); assay: Inhibition of calcium channel Cav2.2 at 10 uM by high throughput assay
Canis familiaris [52] = assay: Toxicity in dog assessed as effect on glomerular filtration at 20 mg/kg, po after 3 hrs; type: organism-based, Canis lupus familiaris; parameters: dose 20 mg/kg, route oral; conditions: in vivo
[53] = AUC (0 to 24 hrs) in monkey at 2 mg/kg, po; type: ADME, organism-based, Macaca mulatta; parameters: time < 24 hr, dose 2 mg/kg, route oral; conditions: rhesus monkey, plasma
[54] = biological target: Voltage-dependent T-type calcium channel subunit alpha-1G (Homo sapiens) (UniProt O43497); assay: Antagonist activity at T type calcium channel Cav3.1 alpha-1G at -100 mV by voltage-clamp electrophysiology assay; type: functional
[55] = Clearance in monkey at 0.5 mg/kg, iv; type: ADME, organism-based, Macaca mulatta; parameters: dose 0.5 mg/kg, route intravenous; conditions: rhesus monkey, in vivo
Canis familiaris [56] = assay: Drug level in dog plasma at 20 mg/kg, po; type: ADME, organism-based, Canis lupus familiaris; parameters: dose 20 mg/kg, route oral; conditions: in vivo, read-out: Drug uptake
[57] = biological target: Voltage-gated inwardly rectifying potassium channel KCNH2 (Homo sapiens, UniProt Q12809)
[58] = Binding affinity to L type calcium channel by binding assay

Chain of Voltage-dependent T-type calcium channel subunit alpha-1I (Homo sapiens) (Q9P0X4 whole entry): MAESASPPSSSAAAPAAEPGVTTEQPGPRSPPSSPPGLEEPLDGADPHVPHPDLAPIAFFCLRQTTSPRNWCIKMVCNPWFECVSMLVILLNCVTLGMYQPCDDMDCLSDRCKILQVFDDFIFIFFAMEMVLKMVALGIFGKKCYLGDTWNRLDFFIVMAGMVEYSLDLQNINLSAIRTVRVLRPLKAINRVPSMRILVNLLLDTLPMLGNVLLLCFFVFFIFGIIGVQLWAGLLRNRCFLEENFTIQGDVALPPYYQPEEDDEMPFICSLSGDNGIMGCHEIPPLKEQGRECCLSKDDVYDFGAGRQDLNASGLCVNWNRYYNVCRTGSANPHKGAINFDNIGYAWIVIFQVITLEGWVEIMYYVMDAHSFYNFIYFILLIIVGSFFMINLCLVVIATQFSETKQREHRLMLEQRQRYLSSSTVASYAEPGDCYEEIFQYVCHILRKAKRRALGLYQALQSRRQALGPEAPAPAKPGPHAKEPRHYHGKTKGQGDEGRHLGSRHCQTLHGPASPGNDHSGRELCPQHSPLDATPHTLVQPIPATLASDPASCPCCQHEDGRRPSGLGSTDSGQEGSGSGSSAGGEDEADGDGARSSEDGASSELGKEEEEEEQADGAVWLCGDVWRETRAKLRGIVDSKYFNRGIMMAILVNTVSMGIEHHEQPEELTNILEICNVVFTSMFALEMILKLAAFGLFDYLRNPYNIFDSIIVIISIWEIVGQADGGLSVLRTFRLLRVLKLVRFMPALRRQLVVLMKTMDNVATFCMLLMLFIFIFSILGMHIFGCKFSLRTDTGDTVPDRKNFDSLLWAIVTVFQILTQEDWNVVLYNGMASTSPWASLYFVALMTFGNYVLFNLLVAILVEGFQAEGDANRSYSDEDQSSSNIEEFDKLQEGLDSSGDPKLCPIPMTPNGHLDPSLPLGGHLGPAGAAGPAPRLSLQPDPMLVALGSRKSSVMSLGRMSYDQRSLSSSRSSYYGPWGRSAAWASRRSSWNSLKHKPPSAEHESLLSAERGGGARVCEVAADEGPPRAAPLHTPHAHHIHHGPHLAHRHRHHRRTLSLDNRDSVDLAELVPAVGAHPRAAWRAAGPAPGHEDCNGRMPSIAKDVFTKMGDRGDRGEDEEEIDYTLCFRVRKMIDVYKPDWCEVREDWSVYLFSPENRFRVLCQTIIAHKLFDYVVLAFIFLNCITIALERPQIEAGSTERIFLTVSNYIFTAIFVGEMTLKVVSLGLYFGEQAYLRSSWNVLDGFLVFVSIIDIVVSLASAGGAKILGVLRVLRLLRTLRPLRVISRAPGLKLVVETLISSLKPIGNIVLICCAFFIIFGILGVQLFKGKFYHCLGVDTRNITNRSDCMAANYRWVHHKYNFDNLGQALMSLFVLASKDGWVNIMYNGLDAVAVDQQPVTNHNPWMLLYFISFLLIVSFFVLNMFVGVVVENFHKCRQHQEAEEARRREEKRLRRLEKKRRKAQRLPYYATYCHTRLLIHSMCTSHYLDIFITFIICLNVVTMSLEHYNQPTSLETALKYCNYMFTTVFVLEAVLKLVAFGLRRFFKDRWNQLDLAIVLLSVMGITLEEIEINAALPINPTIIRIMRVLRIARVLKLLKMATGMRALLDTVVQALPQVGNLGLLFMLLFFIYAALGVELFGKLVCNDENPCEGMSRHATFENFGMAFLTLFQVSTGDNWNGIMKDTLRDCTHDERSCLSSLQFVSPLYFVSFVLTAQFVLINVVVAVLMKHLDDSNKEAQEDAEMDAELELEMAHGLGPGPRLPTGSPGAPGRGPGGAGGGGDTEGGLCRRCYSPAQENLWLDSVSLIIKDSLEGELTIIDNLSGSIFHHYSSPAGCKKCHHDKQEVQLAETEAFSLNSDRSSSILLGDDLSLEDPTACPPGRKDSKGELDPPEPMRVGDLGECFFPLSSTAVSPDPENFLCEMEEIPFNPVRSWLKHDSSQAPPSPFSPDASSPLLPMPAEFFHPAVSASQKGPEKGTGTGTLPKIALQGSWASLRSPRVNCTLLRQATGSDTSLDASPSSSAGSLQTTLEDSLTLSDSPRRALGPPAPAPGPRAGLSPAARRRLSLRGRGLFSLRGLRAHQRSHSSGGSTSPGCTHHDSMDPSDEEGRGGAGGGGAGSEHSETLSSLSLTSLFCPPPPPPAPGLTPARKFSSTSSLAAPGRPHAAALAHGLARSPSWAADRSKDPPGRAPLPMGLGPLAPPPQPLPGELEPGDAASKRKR
Chain of Voltage-dependent T-type calcium channel subunit alpha-1G (Homo sapiens) (O43497 whole entry): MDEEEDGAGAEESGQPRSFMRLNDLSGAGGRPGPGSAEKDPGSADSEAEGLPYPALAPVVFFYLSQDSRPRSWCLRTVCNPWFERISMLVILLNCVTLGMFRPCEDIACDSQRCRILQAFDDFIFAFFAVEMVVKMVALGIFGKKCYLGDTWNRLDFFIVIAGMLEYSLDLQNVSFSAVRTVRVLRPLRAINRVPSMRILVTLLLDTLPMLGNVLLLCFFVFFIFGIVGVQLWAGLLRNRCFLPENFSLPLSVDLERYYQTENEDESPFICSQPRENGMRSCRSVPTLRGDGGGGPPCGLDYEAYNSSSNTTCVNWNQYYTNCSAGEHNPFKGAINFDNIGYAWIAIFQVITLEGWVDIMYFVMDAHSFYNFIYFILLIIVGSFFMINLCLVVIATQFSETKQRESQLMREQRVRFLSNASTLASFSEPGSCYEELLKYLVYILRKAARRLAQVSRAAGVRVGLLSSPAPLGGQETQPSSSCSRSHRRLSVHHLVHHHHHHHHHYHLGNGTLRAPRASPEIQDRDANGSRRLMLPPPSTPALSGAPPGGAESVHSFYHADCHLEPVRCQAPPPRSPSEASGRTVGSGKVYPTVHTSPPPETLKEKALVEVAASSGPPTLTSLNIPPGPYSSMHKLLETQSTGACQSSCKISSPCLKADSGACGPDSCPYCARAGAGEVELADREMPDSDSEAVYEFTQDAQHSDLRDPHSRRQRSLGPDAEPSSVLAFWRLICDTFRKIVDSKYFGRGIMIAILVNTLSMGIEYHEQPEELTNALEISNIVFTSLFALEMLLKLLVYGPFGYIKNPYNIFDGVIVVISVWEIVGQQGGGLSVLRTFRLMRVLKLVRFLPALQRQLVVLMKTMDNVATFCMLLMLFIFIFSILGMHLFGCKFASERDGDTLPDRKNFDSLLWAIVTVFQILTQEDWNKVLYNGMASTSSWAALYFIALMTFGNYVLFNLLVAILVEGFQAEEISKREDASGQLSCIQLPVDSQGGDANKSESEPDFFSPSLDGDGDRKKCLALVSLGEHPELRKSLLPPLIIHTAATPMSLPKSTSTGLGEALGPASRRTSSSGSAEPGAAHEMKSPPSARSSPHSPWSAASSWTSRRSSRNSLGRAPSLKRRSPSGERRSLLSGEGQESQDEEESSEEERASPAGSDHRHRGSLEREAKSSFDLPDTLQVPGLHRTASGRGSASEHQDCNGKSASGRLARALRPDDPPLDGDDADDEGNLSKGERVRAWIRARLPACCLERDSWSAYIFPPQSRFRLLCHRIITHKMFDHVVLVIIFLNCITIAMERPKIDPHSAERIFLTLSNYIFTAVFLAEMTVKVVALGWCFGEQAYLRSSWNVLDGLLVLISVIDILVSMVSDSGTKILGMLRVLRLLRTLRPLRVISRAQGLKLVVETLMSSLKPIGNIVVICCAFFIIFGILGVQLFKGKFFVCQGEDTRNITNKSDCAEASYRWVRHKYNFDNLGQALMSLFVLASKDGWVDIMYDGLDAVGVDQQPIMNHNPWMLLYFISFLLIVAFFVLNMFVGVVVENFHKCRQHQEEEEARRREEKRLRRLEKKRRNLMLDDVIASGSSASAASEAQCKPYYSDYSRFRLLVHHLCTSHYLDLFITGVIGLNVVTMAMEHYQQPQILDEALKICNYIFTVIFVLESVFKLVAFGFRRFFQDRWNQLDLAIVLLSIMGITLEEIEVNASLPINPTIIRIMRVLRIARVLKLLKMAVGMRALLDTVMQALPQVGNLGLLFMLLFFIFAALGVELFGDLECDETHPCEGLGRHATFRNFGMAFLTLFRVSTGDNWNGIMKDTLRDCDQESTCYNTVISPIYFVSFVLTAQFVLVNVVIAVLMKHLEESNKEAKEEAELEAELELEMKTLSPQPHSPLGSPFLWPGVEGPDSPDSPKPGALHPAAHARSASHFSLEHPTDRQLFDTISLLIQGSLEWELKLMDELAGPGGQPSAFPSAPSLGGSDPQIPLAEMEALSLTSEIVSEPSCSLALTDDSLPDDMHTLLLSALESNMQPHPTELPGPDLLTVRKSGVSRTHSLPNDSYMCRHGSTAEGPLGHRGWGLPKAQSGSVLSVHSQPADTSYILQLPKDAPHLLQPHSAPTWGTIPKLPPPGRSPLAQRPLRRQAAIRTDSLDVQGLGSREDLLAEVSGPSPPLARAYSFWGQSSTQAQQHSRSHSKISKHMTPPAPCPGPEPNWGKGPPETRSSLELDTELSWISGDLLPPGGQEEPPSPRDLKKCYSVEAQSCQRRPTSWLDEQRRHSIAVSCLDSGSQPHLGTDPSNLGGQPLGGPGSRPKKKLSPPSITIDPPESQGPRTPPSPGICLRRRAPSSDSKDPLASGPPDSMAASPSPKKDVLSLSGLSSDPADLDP

## CC1(C)C[C@H](CN2CCC(F)(CNC(=O)c3cc(Cl)cc(Cl)c3)CC2)CCO1
Rattus norvegicus [1]
  inhibition (INH): 63%
[2]
  Activity: 94 nM
[3]
  Activity: 297 nM

## CC1(C)C[C@@H](CN2CCC(F)(CNC(=O)c3cc(Cl)cc(Cl)c3)CC2)CCO1
[4]
  Cmax: 190 nM
[5]
  Cmax: 480 nM
[6]
  fraction unbound: 0.01
Canis familiaris [7]
  Activity: Toxic
[8]
  Tmax: 1.5 h
[9]
  clearance: 75 mL/min/kg
[10]
  concentration at 1 h: 1500 nM
Canis familiaris [11]
  Activity: Non-toxic
Canis familiaris [12]
  Activity: Non-toxic
[13]
  fraction unbound: 0.025
Canis familiaris [14]
  Activity: Non-toxic
[15]
  fraction unbound: 0.057
[16]
  bioavailability: 36%
[17]
  half-life: 4.7 h
[18]
  half-life: 3.3 h
[19]
  Activity: 84 nM
[20]
  AUC(0-t) at 4 h: 0.15 µM·h
[21]
  Kp at 9 h: 2.8
[22]
  IC50: 1900 nM
[23]
  AUC(0-t) at 4 h: 2.96 µM·h
[24]
  Cmax: 60 nM
[25]
  Activity: 30%
[26]
  Vd: 3.8 L/kg
[27]
  Activity: 115 nM
[28]
  IC50: 84000 nM
Rattus norvegicus [1]
  inhibition (INH): 81%
[29]
  AUC(0-t) at 24 h: 15.8 µM·h
[30]
  clearance: 2.3 mL/min/kg
Canis familiaris [31]
  Activity: Non-toxic
Rattus norvegicus [32]
  Activity: Dose-dependent effect
[2]
  Activity: 84 nM
[33]
  bioavailability: 87%
[34]
  Vd: 1 L/kg
[35]
  half-life: 1.8 h
[36]
  AUC(0-t) at 24 h: 1.94 µM·h
[37]
  Cmax: 1000 nM
[38]
  Activity: 196 nM
Canis familiaris [39]
  Activity: Non-toxic
[40]
  bioavailability: 44%
[41]
  Vd: 10 L/kg
[42]
  Ki: < 100 nM
[43]
  Cmax: 580 nM
[44]
  Cmax: 2180 nM
[45]
  Kp at 9 h: 6
[46]
  Tmax: 0.7 h
[47]
  AUC(0-t) at 4 h: 0.54 µM·h
[48]
  Tmax: 3.1 h
Canis familiaris [49]
  Activity: Non-toxic
[50]
  concentration at 1 h: 4600 nM
[51]
  inhibition: 18%
Canis familiaris [52]
  Activity: Non-toxic
[53]
  AUC(0-t) at 24 h: 3.2 µM·h
[54]
  Activity: 93 nM
[3]
  Activity: 181 nM
[55]
  clearance: 13.6 mL/min/kg
Canis familiaris [56]
  concentration: 34500 nM

## CC(C)(C)CCN1CCC(CNC(=O)c2cc(Cl)cc(Cl)c2)CC1
[3]
  Activity: 98 nM

## CC1(C)CC(CN2CCC(F)(CNC(=O)c3cc(Cl)cc(Cl)c3)CC2)CCO1 (racemic)
[2]
  Activity: 145 nM
[3]
  Activity: 333 nM

## CC(C)(C)CCN1CCC(F)(CNC(=O)c2cc(Cl)cc(Cl)c2)CC1
[57]
  IC50: 2220 nM
[58]
  IC50: 940 nM
[2]
  Activity: 66 nM
[3]
  Activity: 64 nM
